From US20070021434A1, “NON-NUCLEOSIDE ANTI-HEPACIVIRUS AGENTS AND USES THEREOF” (Migenix Inc., priority 2005, published 2007)

molecular target: HCV RdRp (NS5B) (UniProt P26663); type: biochemical, hepatitis C virus
Sequence (P26663 whole entry, looked up): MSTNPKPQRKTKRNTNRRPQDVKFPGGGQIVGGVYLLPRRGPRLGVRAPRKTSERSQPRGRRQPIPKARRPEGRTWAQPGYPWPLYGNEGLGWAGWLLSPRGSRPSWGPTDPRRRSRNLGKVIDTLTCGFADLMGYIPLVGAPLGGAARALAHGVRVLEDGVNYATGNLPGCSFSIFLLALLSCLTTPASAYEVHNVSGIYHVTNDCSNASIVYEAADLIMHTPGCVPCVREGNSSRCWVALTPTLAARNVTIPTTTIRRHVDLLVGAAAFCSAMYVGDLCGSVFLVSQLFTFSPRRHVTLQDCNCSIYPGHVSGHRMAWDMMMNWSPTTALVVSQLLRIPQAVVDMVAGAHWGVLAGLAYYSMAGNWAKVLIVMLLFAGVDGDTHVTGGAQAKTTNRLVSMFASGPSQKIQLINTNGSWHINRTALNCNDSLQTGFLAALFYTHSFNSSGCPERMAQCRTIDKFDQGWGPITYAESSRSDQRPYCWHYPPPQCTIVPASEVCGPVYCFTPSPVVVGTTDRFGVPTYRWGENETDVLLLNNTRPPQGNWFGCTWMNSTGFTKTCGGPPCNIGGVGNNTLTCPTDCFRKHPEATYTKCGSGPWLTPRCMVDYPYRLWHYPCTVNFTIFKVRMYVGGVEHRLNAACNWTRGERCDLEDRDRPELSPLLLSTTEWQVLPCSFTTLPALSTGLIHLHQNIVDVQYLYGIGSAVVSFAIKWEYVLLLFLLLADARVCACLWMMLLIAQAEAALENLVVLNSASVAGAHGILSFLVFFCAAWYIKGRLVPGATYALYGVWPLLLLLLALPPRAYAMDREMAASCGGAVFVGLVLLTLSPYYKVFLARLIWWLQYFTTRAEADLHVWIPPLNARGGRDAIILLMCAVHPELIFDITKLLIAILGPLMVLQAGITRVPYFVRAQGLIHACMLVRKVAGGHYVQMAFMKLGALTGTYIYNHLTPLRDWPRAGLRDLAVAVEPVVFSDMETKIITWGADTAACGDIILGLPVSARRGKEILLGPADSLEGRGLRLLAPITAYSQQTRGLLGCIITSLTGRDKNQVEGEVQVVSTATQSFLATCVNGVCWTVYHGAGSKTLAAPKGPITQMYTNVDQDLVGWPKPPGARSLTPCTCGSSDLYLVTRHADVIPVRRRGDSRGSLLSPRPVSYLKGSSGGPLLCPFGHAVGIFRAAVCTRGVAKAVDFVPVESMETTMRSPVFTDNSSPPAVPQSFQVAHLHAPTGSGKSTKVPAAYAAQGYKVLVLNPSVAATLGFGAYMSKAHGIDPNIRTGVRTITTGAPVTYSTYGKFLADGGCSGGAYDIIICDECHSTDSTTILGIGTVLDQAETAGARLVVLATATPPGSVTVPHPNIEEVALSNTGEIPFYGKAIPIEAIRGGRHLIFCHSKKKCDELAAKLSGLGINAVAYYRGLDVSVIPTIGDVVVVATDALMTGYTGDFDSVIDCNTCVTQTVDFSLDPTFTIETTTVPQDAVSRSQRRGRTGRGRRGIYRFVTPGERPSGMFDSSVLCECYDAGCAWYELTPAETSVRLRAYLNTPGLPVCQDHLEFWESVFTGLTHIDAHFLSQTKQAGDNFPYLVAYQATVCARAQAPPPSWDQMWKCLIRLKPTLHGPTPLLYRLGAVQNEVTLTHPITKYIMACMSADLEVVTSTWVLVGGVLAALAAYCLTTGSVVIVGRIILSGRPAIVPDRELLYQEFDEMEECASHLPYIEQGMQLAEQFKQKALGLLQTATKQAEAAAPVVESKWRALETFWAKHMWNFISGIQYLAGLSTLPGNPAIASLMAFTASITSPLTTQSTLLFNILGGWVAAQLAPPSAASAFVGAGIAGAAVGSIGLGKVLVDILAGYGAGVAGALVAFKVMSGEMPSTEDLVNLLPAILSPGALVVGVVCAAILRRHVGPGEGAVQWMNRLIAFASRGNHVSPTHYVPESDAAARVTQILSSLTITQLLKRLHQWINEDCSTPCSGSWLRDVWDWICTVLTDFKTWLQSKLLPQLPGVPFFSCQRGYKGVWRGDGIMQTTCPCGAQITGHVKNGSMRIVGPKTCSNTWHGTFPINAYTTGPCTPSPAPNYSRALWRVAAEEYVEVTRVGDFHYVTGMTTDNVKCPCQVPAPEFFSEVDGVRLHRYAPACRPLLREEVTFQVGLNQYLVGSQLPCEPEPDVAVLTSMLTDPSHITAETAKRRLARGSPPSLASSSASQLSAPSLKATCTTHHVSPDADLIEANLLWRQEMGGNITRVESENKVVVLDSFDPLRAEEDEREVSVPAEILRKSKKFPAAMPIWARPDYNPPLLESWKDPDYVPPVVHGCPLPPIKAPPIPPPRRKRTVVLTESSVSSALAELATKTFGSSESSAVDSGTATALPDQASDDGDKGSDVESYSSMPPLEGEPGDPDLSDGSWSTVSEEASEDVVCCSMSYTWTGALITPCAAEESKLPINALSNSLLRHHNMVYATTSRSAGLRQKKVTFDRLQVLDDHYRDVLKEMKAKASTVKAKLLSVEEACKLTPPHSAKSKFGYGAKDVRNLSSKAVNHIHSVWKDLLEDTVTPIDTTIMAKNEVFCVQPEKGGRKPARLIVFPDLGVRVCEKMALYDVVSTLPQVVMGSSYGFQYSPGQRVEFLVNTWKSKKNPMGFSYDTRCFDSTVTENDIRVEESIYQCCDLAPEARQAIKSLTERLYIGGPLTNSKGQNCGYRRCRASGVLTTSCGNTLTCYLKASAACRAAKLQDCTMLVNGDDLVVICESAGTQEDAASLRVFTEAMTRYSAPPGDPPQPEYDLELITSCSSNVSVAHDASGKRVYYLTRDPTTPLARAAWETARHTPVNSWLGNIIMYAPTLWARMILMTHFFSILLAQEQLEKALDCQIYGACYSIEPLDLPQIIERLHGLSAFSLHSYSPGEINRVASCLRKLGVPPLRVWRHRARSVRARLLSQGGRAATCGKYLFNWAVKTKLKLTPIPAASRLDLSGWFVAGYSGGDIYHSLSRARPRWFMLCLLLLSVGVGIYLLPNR

| SMILES | IC50 [µM] |
| --- | --- |
| O=CNCCCC[C@H](NC(=O)OCC1c2ccccc2-c2ccccc21)C(=O)Nc1ccc(Cl)c(Cl)c1 [Compound 217, (S)-[1-(3,4-DICHLORO-PHENYLCARBAMOYL)-5-FORMYLAMINO-PENTYL]-CARBAMIC ACID 9H-FLUOREN-9-YLMETHYL ESTER] | 10 to 50 |
| Cc1ccc(NC(=O)C(CCCCN)NC(=O)Nc2cccc(-c3nc4ccccc4o3)c2)cc1 [Compound 271, (S)-6-AMINO-2-[3-(3-BENZOOXAZOL-2-YL-PHENYL)-UREIDO]-HEXANOIC ACID P-TOLYLAMIDE] | < 10 |
| Cc1ccc(NC(=O)[C@H](CCCCN)NC(=O)COc2cccc(Cl)c2)cc1 [Compound 330, (S)-^6-AMINO-2-[2-(^3-CHLORO-PHENOXY)-ACETYLAMINO]-HEXANOIC ACID P-TOLYLAMIDE] | > 50 |
| Cc1ccc(NC(=O)[C@H](CCCCN)NC(=O)CNCc2ccc(F)cc2)cc1 [Compound 346, (S)-6-AMINO-2-[2-(4-FLUORO-BENZYLAMINO)-ACETYLAMINO]-HEXANOIC ACID P-TOLYLAMIDE] | > 50 |
| Cc1ccc(NC(=O)[C@H](CCCCN)NC(=O)Nc2ccc(OCc3cc(F)cc(F)c3)cc2)cc1 [Compound 256, (S)-6-AMINO-2-{3-[4-(3,5-DIFLUORO-BENZYLOXY)-PHENYL]-UREIDO}-HEXANOIC ACID P-TOLYLAMIDE] | > 50 |
| NCCC[C@H](NC(=O)OCC1c2ccccc2-c2ccccc21)C(=O)Nc1ccc(C2CCCCC2)cc1 [Compound 200, (S)-[4-AMINO-1-(4-CYCLOHEXYL-PHENYLCARBAMOYL)-BUTYL]-CARBAMIC ACID 9H-FLUOREN-9-YLMETHYL ESTER] | < 10 |
| Cc1ccc(NC(=O)[C@H](CCCCN)NC(=O)Nc2ccc(OCc3ccc([N+](=O)[O-])cc3)cc2)cc1 [Compound 196, (S)-6-AMINO-2-{3-[4-(4-NITRO-BENZYLOXY)-PHENYL]-UREIDO}-HEXANOIC ACID P-TOLYLAMIDE] | 10 to 50 |
| Cc1ccc(NC(=O)[C@H](CCCCN)NC(=O)NS(=O)(=O)c2ccccc2)cc1 [Compound 99, (S)-6-AMINO-2-[PHENYLSULFONAMIDE-UREIDO]-HEXANOIC ACID P-TOLYLAMIDE] | > 50 |
| NCCCC[C@H](NC(=O)OCC1c2ccccc2-c2ccccc21)C(=O)Nc1ccc2[nH]ncc2c1 [Compound 82, (S)-[5-AMINO-1-(1H-INDAZOL-5-YLCARBAMOYL)-PENTYL]-CARBAMIC ACID 9H-FLUOREN-9-YLMETHYL ESTER] | > 50 |
| NCCCC[C@H](NC(=O)Nc1ccc(OCc2ccccc2)cc1)C(=O)Nc1cccc2c1CCC2 [Compound 321, (S)-6-AMINO-2-[3-(4-BENZYLOXY-PHENYL)-UREIDO]-HEXANOIC ACID INDAN-4-YLAMIDE] | < 10 |
| Cc1ccc(NC(=O)[C@H](CCCCN)NC(=O)CNc2ccc3c(c2)CCC3)cc1 [Compound 369, (S)-6-AMINO-2-[2-(INDAN-5-YLAMINO)-ACETYLAMINO]-HEXANOIC ACID P-TOLYLAMIDE] | > 50 |
| Cc1ccc(NC(=O)C(CCCCN)NC(=O)Nc2ccccc2-c2ccccc2)cc1 [Compound 73, (S)-6-AMINO-2-(3-BIPHENYL-2-YL-UREIDO)-HEXANOIC ACID P-TOLYLAMIDE] | > 50 |
| Cc1ccc(NC(=O)C2CCCN2C(=O)OCC2c3ccccc3-c3ccccc32)cc1 [Compound 86, (R)-2-P-TOLYLCARBAMOYL-PYRROLIDINE-1-CARBOXYLIC ACID 9H-FLUOREN-9-YLMETHYL ESTER] | > 50 |
| Cc1ccc(NC(=O)C(Cc2ccc(N)cc2)NC(=O)OCC2c3ccccc3-c3ccccc32)cc1 [Compound 180, (S)-[2-(4-AMINO-PHENYL)-1-P-TOLYLCARBAMOYL-ETHYL]-CARBAMIC ACID 9H-FLUOREN-9-YLMETHYL ESTER] | > 50 |
| Cc1ccc(NC(=O)[C@H](CCCCN)NC(=O)CNCc2ccccc2)cc1 [Compound 337, (S)-6-AMINO-2-(2-BENZYLAMINO-ACETYLAMINO)-HEXANOIC ACID P-TOLYLAMIDE] | > 50 |
| Cc1ccc(NC(=O)C(CCCCN)NC(=O)CNCc2ccc(C(F)(F)F)cc2)cc1 [Compound 352, (S)-6-AMINO-2-[2-(4-TRIFLUOROMETHYL-BENZYLAMINO)-ACETYLAMINO]-HEXANOIC ACID P-TOLYLAMIDE] | > 50 |
| CCNCC(=O)N1CCN(C(=O)OCC2c3ccccc3-c3ccccc32)C(CC(=O)Nc2ccc(C)cc2)C1 (centres unmarked) [Compound 187, 4-(2-ETHYLAMINO-ACETYL)-2-(P-TOLYLCARBAMOYL-METHYL)-PIPERAZINE-1-CARBOXYLIC ACID 9H-FLUOREN-9-YLMETHYL ESTER] | 10 to 50 |
| NC(Cc1ccccc1)C(=O)Nc1ccc(CN(C(=O)c2ccco2)C2CCCCC2)cc1 (stereo in doubt) [Compound 11, (R)-FURAN-2-CARBOXYLIC ACID [4-(2-AMINO-3-PHENYL-PROPIONYLAMINO)-BENZYL]-CYCLOHEXYL-AMIDE] | > 50 |
| Cc1ccc(NC(=O)[C@H](CCCCN)NC(=O)Nc2ccc(OCc3cccc([N+](=O)[O-])c3)cc2)cc1 [Compound 275, (S)-6-AMINO-2-{3-[4-(3-NITRO-BENZYLOXY)-PHENYL]-UREIDO}-HEXANOIC ACID P-TOLYLAMIDE] | 10 to 50 |

| SMILES | IC50 [µM] |
| --- | --- |
| CC(C)(C)c1ccc(NC(=O)[C@H](Cc2ccc(CN)cc2)NC(=O)Nc2ccc3c(c2)Cc2ccccc2-3)cc1 [Compound 152, (S)-3-(4-AMINOMETHYL-PHENYL)-N-(4-TERT-BUTYL-PHENYL)-2-[3-(9H-FLUOREN-2-YL)-UREIDO]-PROPIONAMIDE] | < 10 |
| Cc1ccc(NC(=O)[C@@H](CCCCN)NC(=O)Nc2cccc(OCc3ccccc3)c2)cc1 [Compound 205, (R)-6-AMINO-2-[3-(3-BENZYLOXY-PHENYL)-UREIDO]-HEXANOIC ACID P-TOLYLAMIDE] | > 50 |
| C=CCOC(=O)NCCCC[C@H](N)C(=O)Nc1ccc(CN(C(=O)c2ccco2)C2CCCCC2)cc1 [Compound 5, (S)-[5-AMINO-5-(4-{[CYCLOHEXYL-(FURAN-2-CARBONYL)-AMINO]-METHYL}-PHENYLCARBAMOYL)-PENTYL]-CARBAMIC ACID ALLYL ESTER] | > 50 |
| O=C(CC1CNCCN1C(=O)NCc1ccccc1)Nc1ccc(C2CCCCC2)cc1 (centres unmarked) [Compound 158, 2-[(4-CYCLOHEXYL-PHENYLCARBAMOYL)-METHYL]-PIPERAZINE-1-CARBOXYLIC ACID BENZYLAMIDE] | 10 to 50 |
| Cc1ccc(NC(=O)C(CCCCN)NC(=O)COc2ccc(-c3ccccc3)cc2)cc1 [Compound 326, (S)-6-AMINO-2-[2-(BIPHENYL-4-YLOXY)-ACETYLAMINO]-HEXANOIC ACID P-TOLYLAMIDE] | > 50 |
| NCCCC[C@H](NC(=O)Nc1ccc(OCc2ccccc2)cc1)C(=O)NC1CCCC1 [Compound 255, (S)-6-AMINO-2-[3-(4-BENZYLOXY-PHENYL)-UREIDO]-HEXANOIC ACID CYCLOPENTYLAMIDE] | 10 to 50 |
| Cc1ccc(NC(=O)C2CC(OC(=O)CN)CN2C(=O)OCC2c3ccccc3-c3ccccc32)cc1 [Compound 131, (S)-[4-(R)-(2-AMINO-ACETOXY)-2-P-TOLYLCARBAMOYL-PYRROLIDINE-1-CARBOXYLIC ACID 9H-FLUOREN-9-YLMETHYL ESTER]] | > 50 |
| CC(C)(C)c1ccc(NC(=O)[C@H](Cc2ccc(CN)cc2)NC(=O)NCc2ccccc2)cc1 [Compound 148, (S)-3-(4-AMINOMETHYL-PHENYL)-2-(3-BENZYL-UREIDO)-N-(4-TERT-BUTYL-PHENYL)-PROPIONAMIDE] | > 50 |
| Cc1ccc(NC(=O)C(N)CNC(=O)OCC2c3ccccc3-c3ccccc32)cc1 [Compound 84, (R)-(2-AMINO-2-P-TOLYLCARBAMOYL-ETHYL)-CARBAMIC ACID 9H-FLUOREN-9-YLMETHYL ESTER] | > 50 |
| Cc1ccc(NC(=O)C2CC(O)CN2C(=O)OCC2c3ccccc3-c3ccccc32)cc1 [Compound 87, (4R,S)-4-HYDROXY-2-P-TOLYLCARBAMOYL-PYRROLIDINE-1-CARBOXYLIC ACID 9H-FLUOREN-9-YLMETHYL ESTER] | > 50 |
| Cc1ccc(NC(=O)[C@H](CCCCN)NC(=O)Nc2ccc(OCc3c(F)cccc3F)cc2)cc1 [Compound 287, (S)-6-AMINO-2-{3-[4-(2,6-DIFLUORO-BENZYLOXY)-PHENYL]-UREIDO}-HEXANOIC ACID P-TOLYLAMIDE] | 10 to 50 |
| Cc1ccc(NC(=O)[C@H](CCCCN)NS(=O)(=O)c2ccc(Cl)cc2)cc1 [Compound 391, (S)-6-AMINO-2-(4-CHLORO-BENZENESULFONYLAMINO)-HEXANOIC ACID P-TOLYLAMIDE] | > 50 |
| NCCCC[C@H](NC(=O)NCc1ccc(Cl)c(Cl)c1)C(=O)Nc1ccc(CN(C(=O)c2ccco2)C2CCCCC2)cc1 [Compound 154, (S)-FURAN-2-CARBOXYLIC ACID (4-{6-AMINO-2-[3-(3,4-DICHLORO-BENZYL)-UREIDO]-HEXANOYLAMINO}-BENZYL)-CYCLOHEXYL-AMIDE] | 10 to 50 |
| NCCCC[C@H](NC(=O)NCc1ccccc1)C(=O)Nc1ccc(CN(C(=O)c2ccco2)C2CCCCC2)cc1 [Compound 153, (S)-FURAN-2-CARBOXYLIC ACID {4-[6-AMINO-2-(3-BENZYL-UREIDO)-HEXANOYLAMINO]-BENZYL}-CYCLOHEXYL-AMIDE] | > 50 |
| Cc1cc2cc(NC(=O)[C@H](CCNC(=O)CN)NC(=O)Nc3ccc(OCc4ccccc4)cc3)ccc2[nH]1 [Compound 241, (S)-4-(2-AMINO-ACETYLAMINO)-2-[3-(4-BENZYLOXY-PHENYL)-UREIDO]-N-(2-METHYL-1H-INDOL-5-YL)-BUTYRAMIDE] | < 10 |
| CC(=O)c1cccc(NC(=O)[C@H](CCCCN)NC(=O)OCC2c3ccccc3-c3ccccc32)c1 [Compound 219, (S)-[1-(3-ACETYL-PHENYLCARBAMOYL)-5-AMINO-PENTYL]-CARBAMIC ACID 9H-FLUOREN-9-YLMETHYL ESTER] | > 50 |
| Cc1ccc(NC(=O)C(CCCCN)NC(=O)CNCc2cccc(C)c2)cc1 [Compound 339, (S)-6-AMINO-2-[2-(3-METHYL-BENZYLAMINO)-ACETYLAMINO]-HEXANOIC ACID P-TOLYLAMIDE] | > 50 |
| NCCC[C@@H](NC(=O)OCC1c2ccccc2-c2ccccc21)C(=O)Nc1ccc(C2CCCCC2)cc1 [Compound 198, (R)-[4-AMINO-1-(4-CYCLOHEXYL-PHENYLCARBAMOYL)-BUTYL]-CARBAMIC ACID 9H-FLUOREN-9-YLMETHYL ESTER] | < 10 |
| CC(C)(C)c1ccc(NC(=O)[C@H](Cc2ccc(CN)cc2)NC(=O)Nc2ccc(OCc3ccccc3)cc2)cc1 [Compound 174, (S)-3-(4-AMINOMETHYL-PHENYL)-2-[3-(4-BENZYLOXY-PHENYL)-UREIDO]-N-(4-TERT-BUTYL-PHENYL)-PROPIONAMIDE] | < 10 |
